Here are results for 8 molecules from US6355681B2, “Glycine substitutes and precursors for treating a psychosis” (Glytech, Inc., priority 1995, dated 2002).

Where two headings read alike, the source gives them in different places.

Experiment [1] in a line: Double blind, placebo-controlled crossover study of D-cycloserine in schizophrenia (PANSS). The class given is in vivo, human. The following applies: D-cycloserine 50 mg/day, 6 weeks.
In experiment [2] the target is T1, GLYT1-mediated synaptosomal glycine transport (Rattus norvegicus, UniProt P28572).
T1 construct: Synaptosomal P2 fractions were prepared from cerebral cortex+hippocampus of Sprague-Dawley rats; from tissue; host or cells: rat cerebral cortex + hippocampus, P2 synaptosomal fraction
T1 sequence (P28572 1-638): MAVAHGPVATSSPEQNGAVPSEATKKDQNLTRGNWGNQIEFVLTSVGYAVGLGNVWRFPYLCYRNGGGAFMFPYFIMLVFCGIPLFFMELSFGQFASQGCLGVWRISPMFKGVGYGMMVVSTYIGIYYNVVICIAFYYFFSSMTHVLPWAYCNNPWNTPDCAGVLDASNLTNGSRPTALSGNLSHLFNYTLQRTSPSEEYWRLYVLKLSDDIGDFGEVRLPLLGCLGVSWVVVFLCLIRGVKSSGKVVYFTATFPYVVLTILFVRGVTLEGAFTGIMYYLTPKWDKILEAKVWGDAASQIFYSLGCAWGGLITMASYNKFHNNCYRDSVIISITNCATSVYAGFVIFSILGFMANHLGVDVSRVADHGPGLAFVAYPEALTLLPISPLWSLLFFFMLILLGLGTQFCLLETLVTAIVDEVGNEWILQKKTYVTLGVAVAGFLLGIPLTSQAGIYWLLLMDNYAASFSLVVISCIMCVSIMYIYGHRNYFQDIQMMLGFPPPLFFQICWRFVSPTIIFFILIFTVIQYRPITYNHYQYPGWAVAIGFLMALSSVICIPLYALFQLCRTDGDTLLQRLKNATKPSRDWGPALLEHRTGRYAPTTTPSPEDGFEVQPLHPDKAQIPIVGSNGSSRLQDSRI
Nature of the experiment: Inhibition of [3H]glycine uptake in P2 synaptosomal fractions. The class given is biochemical, Sprague-Dawley rats. The note with it: 100 μg/ml. How it is done: Synaptosomal P2 fractions were prepared from cerebral cortex+hippocampus of Sprague-Dawley rats (200-250 g). Brain tissue was homogenized in 0.32 M sucrose in Tris-HCl buffer (pH 7.4), and centrifuged at 1,000×g for 10 min at 4° C. in a Sorvall 5C centrifuge. The supernatant was then centrifuged at 14,000×g for 10 min and the pellet resuspended in artificial CSF having the following composition (mM): NaCl, 125; KCl, 3; MgSO4, 1.2; CaCl2, 1.2; NaH2PO4, 1; NaHCO3, 22; glucose, 10. Homogenate was aerated with 95% O2/5% CO2 until use. 1 ml aliquots of homogenate were preincubated with specific concentrations of glycineamide derivatives, following which incubation was initiated by the addition of 10 μl of 10 μM [^3H]glycine (DuPont/NEN or Sigma, spec. act.≈45 Ci/mmol) to obtain a final concentration of 100 nM. Nonspecific binding was determined in the presence of 10 mM sarcosine. Following 5 min, incubation was terminated by filtration under reduced pressure using a Brandel 24-well cell harvester and Whatman GF-B filters. Radioactivity was determined by scintillation counter with approximate efficiency of 50%.

Experiment [3] deals with PCP-induced hyperactivity. As to the kind of experiment: Inhibition of PCP-induced locomotor hyperactivity. The experiment is classed as in vivo, BALB/c mice. The note with it: for inhibition of PCP-induced hyperactivity: 100 mg/kg i.p. pretreatment, summed activity over 90 min. On the procedure: (§1) Behavioral studies were performed using BALB/c mice (25 g) of either sex. Rodent activity was monitored using a photocell-based activity meter (Columbus Instruments Auto-Track System, Columbus, Ohio). Animals were placed in test cages and allowed to accommodate overnight. […] 30 min. after pretreatment, animals were injected with either PCP (5 mg/kg i.p.) or amphetamine (5 mg/kg s.c.). Activity was then monitored for an additional 90 minutes. For statistical analyses, summed activity over the 90 min. following PCP/amphetamine injection was used as a measure of drug-induced hyperactivity.

For experiment [4], the system named is amphetamine-induced hyperactivity. As to the kind of experiment: Effect on amphetamine-induced locomotor hyperactivity. The class given is in vivo, BALB/c mice. The following applies: GDA 50 mg/kg i.p.; amphetamine 5 mg/kg. How it is done:
as §1

Experiment [5] concerns PCP-induced hyperactivity. The note with it: cited from earlier work.

On to `N[C@@H]1CONC1=O` [D-cycloserine], for which, in experiment [1], the “change in general psychopathology scores (PANSS)” value is given as “did not change significantly”, the “change in positive symptoms (PANSS)” value is on record as “did not change significantly” and the “mean decrease in negative symptoms” value came out at 9.2%. Moreover, the “reduction in negative symptoms (PANSS)” value in experiment [1] (mean±SD) is reported as 3.6±3.7 point.

Regarding `CCCCCCCCNC(=O)CN` [G8A, glycyloctylamide], the “effect on GLYT1-mediated transport at single fixed concentration” value (shortened to “effect on GLYT1-mediated transport”) in experiment [2] was “no significant effect”.

In the case of `CCCCCCCCCCNC(=O)CN` [G10A, glycyldecylamide], the “inhibition of PCP-induced hyperactivity” value in experiment [3] (PCP 5 mg/kg i.p.) is “Significant reductions”. Further, the “effect on GLYT1-mediated transport” value in experiment [2] is “significant inhibition”.

For the molecule `CCCCCCCCCCCNC(=O)CN` [G11A, glycylundecylamide], the “effect on GLYT1-mediated transport” value in experiment [2] is on record as “significant inhibition”.

Consider `CCCCCCCCCCCCCNC(=O)CN` [G13A, glycyltriscadecylamide], for which the “inhibition of PCP-induced hyperactivity” value in experiment [3] (PCP 5 mg/kg i.p.) is on record as “Significant reductions”. Moreover, in experiment [2], the “effect on GLYT1-mediated transport” value is on record as “significant inhibition”.

For `CCCCCCCCCCCCNC(=O)CN` [GDA, glycyldodecylamide], the “PCP-induced hyperactivity, % of control (PCP alone) levels” value in experiment [3] (50 mg/kg, PCP 5 mg/kg i.p.) is “below 70 % of control”; in experiment [3] (100 mg/kg, PCP 5 mg/kg i.p.), “below 50 % of control”. In experiment [3] (PCP 5 mg/kg i.p.), the “inhibition of PCP-induced hyperactivity” value is “Significant reductions”. The “effect on hyperactivity induced by PCP” value in experiment [3] (GDA 50 mg/kg i.p., PCP 5 mg/kg i.p.) is given as “significantly reduced”. In experiment [3] (GDA pretreatment 50 mg/kg i.p.), the “effect on basal activity” value is reported as “did not significantly affect”. Moreover, in experiment [4], the “effect on hyperactivity induced by amphetamine” value is on record as “not significantly altered”. For the same molecule, the “effect on GLYT1-mediated transport” value in experiment [2] is on record as “significant inhibition”. For the same molecule, in experiment [5] (early preclinical studies), the “potency in reversing PCP-induced hyperactivity relative to glycine (Toth et al., 1986)” value is recorded as “significantly more potent than glycine”. For the same molecule, the “doses inhibiting PCP-induced hyperactivity (prior studies)” value in experiment [5] (i.p., prior studies) is 50 to 200 mg/kg.

Consider `NCC(=O)O` [glycine], for which, for the setting “beginning to end of glycine treatment”, the “change in positive symptoms (PANSS)” value is recorded as “did not change significantly”. Where the note is “end of glycine treatment (beginning 25.7±7.0), mean±SD”, the “positive symptoms score at end of treatment” value came out at 22.0±4.0 points. For the same molecule, the “general psychopathology score at end of treatment” value (end of glycine treatment (from 56.0±19.4), mean±SD) came to 43.0±13.8 points. In addition, for the setting “glycine 0.8 g/kg/day, 6 weeks”, the “decrease in general psychopathology symptoms” value amounted to 23.2% and the “mean reduction in negative symptoms” value came out at 28.5%. The “reduction in negative symptoms (PANSS)” value (glycine 0.8 g/kg/day, 6 weeks, 7 neuroleptic-resistant schizophrenia subjects, mean±SD) is 11.3±3.6 point. Besides, the “change in general psychopathology (PANSS)” value (glycine 0.8 g/kg/day, 6 weeks, mean±SD) came out at 13.0±7.7 point. Further, the “degree of reduction in negative symptoms relative to D-cycloserine treatment” value (same subjects, change scores compared across the two trials) is recorded as 3 fold.

As to glycylhexylamide [G6A], the “inhibition of PCP-induced hyperactivity” value in experiment [3] (PCP 5 mg/kg i.p.) is given as “did not significantly inhibit”. In addition, the “effect on GLYT1-mediated transport” value in experiment [2] is given as “significant potentiation”. Moreover, the “inhibition of PCP-induced hyperactivity (early study, Toth et al., 1986)” value in experiment [5] (literature) is given as “not to significantly inhibit”.
